# Test results taken from BindingDB's records for doi:10.1016/j.ejmech.2019.02.016 (National Health Research Institutes, 2019).
# pEC50: −log10 of the molar value.
# Test: Inhibition of NS5A in HCV genotype 1b infected in human HuH7 replicon cells assessed as reduction in subgenomic viral RNA replication treated for 2 days followed by compound washout and subsequent compound dosing measured after 1 day by SEAP reporter gene assay
row,SMILES,pEC50
1,COC(=O)N[C@H](C(=O)N1CCC[C@H]1c1ncc(-c2ccc(-c3ccc(-c4cnc([C@@H]5CCCN5C(=O)[C@@H](NC(=O)OC)c5ccccc5)s4)cc3)cc2)s1)c1ccccc1,7.39
2,O=C(N[C@@H](C(=O)N1CCC[C@H]1c1ncc(-c2ccc(-c3ccc(-c4cnc([C@@H]5CCCN5C(=O)[C@H](NC(=O)C5CC5)C5CCCCC5)s4)cc3)cc2)s1)C1CCCCC1)C1CC1,< 4.30
3,O=C(CCN1CCOCC1)N[C@H](C(=O)N1CCC[C@H]1c1ncc(-c2ccc(-c3ccc(-c4cnc([C@@H]5CCCN5C(=O)[C@H](NC(=O)CCN5CCOCC5)c5ccccc5)s4)cc3)cc2)s1)c1ccccc1,8.59
4,O=C(N[C@@H](C(=O)N1CCC[C@H]1c1ncc(-c2ccc(-c3ccc(-c4cnc([C@@H]5CCCN5C(=O)[C@H](NC(=O)c5cccs5)c5ccccc5)s4)cc3)cc2)s1)c1ccccc1)c1cccs1,8.85
5,O=C(N[C@@H](C(=O)N1CCC[C@H]1c1ncc(-c2ccc(-c3ccc(-c4cnc([C@@H]5CCCN5C(=O)[C@H](NC(=O)C5CCC5)c5ccccc5)s4)cc3)cc2)s1)c1ccccc1)C1CCC1,11.15
6,O=C(N[C@H](C(=O)N1CCC[C@H]1c1ncc(-c2ccc(-c3ccc(-c4cnc([C@@H]5CCCN5C(=O)[C@H](NC(=O)N5CCOCC5)c5ccccc5)s4)cc3)cc2)s1)c1ccccc1)N1CCOCC1,8.96
7,O=C(N[C@H](C(=O)N1CCC[C@H]1c1ncc(-c2ccc(-c3ccc(-c4cnc([C@@H]5CCCN5C(=O)[C@H](NC(=O)C5CCCCC5)c5ccccc5)s4)cc3)cc2)s1)c1ccccc1)C1CCCCC1,7.40
8,CN1CCN(CCC(=O)N[C@@H](C(=O)N2CCC[C@H]2c2ncc(-c3ccc(-c4ccc(-c5cnc([C@@H]6CCCN6C(=O)[C@H](NC(=O)CCN6CCN(C)CC6)c6ccccc6)s5)cc4)cc3)s2)c2ccccc2)CC1,8.14
9,COC(=O)N[C@H](C(=O)N1CCC[C@H]1c1ncc(-c2ccc(-c3ccc(-c4cnc([C@@H]5CCCN5C(=O)[C@H](NC(=O)OC)c5ccccc5)s4)cc3)cc2)s1)c1ccccc1,6.97
10,COC(=O)N[C@@H](C(=O)N1CCC[C@H]1c1ncc(-c2ccc(-c3ccc(-c4cnc([C@@H]5CCCN5C(=O)[C@H](NC(=O)OC)c5ccccc5)s4)cc3)cc2)s1)c1ccccc1,9.72
11,CCOC(=O)N[C@H](C(=O)N1CCC[C@H]1c1ncc(-c2ccc(-c3ccc(-c4cnc([C@@H]5CCCN5C(=O)[C@@H](NC(=O)OCC)C(C)C)s4)cc3)cc2)s1)C(C)C,6.49
12,CC(C)[C@H](NC(=O)Oc1ccccc1)C(=O)N1CCC[C@H]1c1ncc(-c2ccc(-c3ccc(-c4cnc([C@@H]5CCCN5C(=O)[C@@H](NC(=O)Oc5ccccc5)C(C)C)s4)cc3)cc2)s1,5.55
13,COC(=O)N[C@@H](C)C(=O)N1CCC[C@H]1c1ncc(-c2ccc(-c3ccc(-c4cnc([C@@H]5CCCN5C(=O)[C@H](C)NC(=O)OC)s4)cc3)cc2)s1,6.80
14,CCC[C@H](NC(=O)OC)C(=O)N1CCC[C@H]1c1ncc(-c2ccc(-c3ccc(-c4cnc([C@@H]5CCCN5C(=O)[C@H](CCC)NC(=O)OC)s4)cc3)cc2)s1,6.91
15,COC(=O)N[C@@H](CC(C)C)C(=O)N1CCC[C@H]1c1ncc(-c2ccc(-c3ccc(-c4cnc([C@@H]5CCCN5C(=O)[C@H](CC(C)C)NC(=O)OC)s4)cc3)cc2)s1,6.75
16,CC(C)C[C@@H](NC(=O)C1CC1)C(=O)N1CCC[C@H]1c1ncc(-c2ccc(-c3ccc(-c4cnc([C@@H]5CCCN5C(=O)[C@@H](CC(C)C)NC(=O)C5CC5)s4)cc3)cc2)s1,7.57
17,CC(C)[C@@H](NC(=O)C1CC1)C(=O)N1CCC[C@H]1c1ncc(-c2ccc(-c3ccc(-c4cnc([C@@H]5CCCN5C(=O)[C@H](NC(=O)C5CC5)C(C)C)s4)cc3)cc2)s1,6.14
18,CCC[C@@H](NC(=O)C1CC1)C(=O)N1CCC[C@H]1c1ncc(-c2ccc(-c3ccc(-c4cnc([C@@H]5CCCN5C(=O)[C@@H](CCC)NC(=O)C5CC5)s4)cc3)cc2)s1,7.04
19,CC[C@@H](NC(=O)C1CC1)C(=O)N1CCC[C@H]1c1ncc(-c2ccc(-c3ccc(-c4cnc([C@@H]5CCCN5C(=O)[C@@H](CC)NC(=O)C5CC5)s4)cc3)cc2)s1,6.36
